Where “and” joins values, the source holds several entries; their conditions need not be identical. Equal entries are not always repeated. Where two headings read alike, the source gives them in different places.
Assays:
A. thaliana seedlings = experiment: In planta seedling development and root length on GM/MS media; format: in vivo; conditions: for Normalised root / Root Length: individual plants 1-20
Description: Gamborg modified/Murashige Skoog (GM/MS) media and soil were prepared as according to Table 6.
A. thaliana seeds were sterilised including a 15 min wash step in 10% (v/v) commercial bleach without the addition of detergents. All plants were grown in a controlled environment room (CER) at 22±5° C. with 16 hrs: 8 hrs light: dark, 50-60% humidity under cool-white fluorescent light. Plants grown on soil were regularly watered and relocated within the CER.
Basta was employed as a positive control at a final recommended concentration of 10 μg/mL (50 μM). Negative controls included 0% (v/v) DMSO (H2O) and 1% (v/v) DMSO (vehicle). Media was poured into 100 mL plates and allowed to set before adding 20 sterilised seeds per plate. Seeds were then stratified at 4° C. for 72 hrs in a dark room prior to relocation into a CER.
The resulting growth plates were monitored daily and allowed to grow in an upright position for up to 14 days post stratification to determine the average root length using ImageJ analysis. Experiments were carried out in triplicates. Results were statistically validated using t-tests employing GraphPad Prism.

MSSA 9144 = experiment: Broth microdilution MIC; format: cell-based; conditions: Staphylococcus aureus
Description: (§1) Assays were carried out by a broth microdilution method using a 96-well plate according to guidelines defined by the European Committee on Antimicrobial Susceptibility Testing as described here. Overnight cultures of strains were grown in tryptic soy broth (TSB) at 37° C. The overnight cultures were diluted to a concentration of 1×10^6 bacteria/ml (OD600=0.01) in TSB media. To each well on 96 well plates, 100 μl of bacterially infected media at a concentration of 1×10^6/ml and compounds at various concentrations were added. An uninfected control (i.e. no bacteria) was also included. The plates were incubated at 37° C. wrapped in parafilm for 20 hrs. The growth was assessed by measuring the absorbance at 600 nm. The minimum inhibitory concentration (MIC) was determined to be the lowest concentration of compound that inhibits visible bacterial growth.

[1] = system: Escherichia coli NCTC12923; experiment: Broth microdilution MIC; format: cell-based
Description: as §1

[2] = system: Enterococcus faecalis 775; experiment: Broth microdilution MIC; format: cell-based
Description: as §1

[3] = system: Enterococcus faecium 12204; experiment: Broth microdilution MIC; format: cell-based
Description: as §1

[4] = system: Pseudomonas aeruginosa 13437; experiment: Broth microdilution MIC; format: cell-based
Description: as §1

[5] = system: Acinetobacter baumannii 17978; experiment: Broth microdilution MIC; format: cell-based
Description: as §1

EMRSA-15 = experiment: Broth microdilution MIC; format: cell-based
Description: as §1

EMRSA-16 = experiment: Broth microdilution MIC; format: cell-based
Description: as §1

Klebsiella pneumoniae M6 = experiment: Broth microdilution MIC; format: cell-based
Description: as §1

[6] = system: Pseudomonas aeruginosa PA01; experiment: Broth microdilution MIC; format: cell-based
Description: as §1

[7] = system: Acinetobacter baumannii AYE; experiment: Broth microdilution MIC; format: cell-based
Description: as §1

[8] = system: Enterococcus faecalis 12201; experiment: Broth microdilution MIC; format: cell-based
Description: as §1

A. thaliana DHDPS = system: T1, A. thaliana DHDPS; experiment: DHDPS-DHDPR coupled assay, dose response inhibitor assay; format: biochemical, Arabidopsis thaliana
T1 construct: AtDHDPS|10|0.00008; no borders, domain or tags given

## COc1ccccc1/C=C1\SC(=O)N(CC(=O)O)C1=O [Compound 3, (Z)-2-(5-(2-Methoxybenzylidene)-2,4-dioxothiazolidin-3-yl)acetic Acid]
A. thaliana seedlings; 15.6 μM in GM/MS media
  Normalised root: 126.8 and 79.33 and 8.429 and 111.7 and 109.2 and 119.2 and 125.6 and 130.3 and 102.2 and 104.4 and 74.72 and 87.31 and 77.74 and 72.45 and 127.9 and 91.64 and 101.7 and 3.856 and 113.4 and 59.09
  Root Length: 4.242 cm and 2.654 cm and 0.282 cm and 3.737 cm and 3.653 cm and 3.988 cm and 4.202 cm and 4.361 cm and 3.42 cm and 3.494 cm and 2.5 cm and 2.921 cm and 2.601 cm and 2.424 cm and 4.28 cm and 3.066 cm and 3.403 cm and 0.129 cm and 3.794 cm and 1.977 cm
A. thaliana seedlings; 31.3 μM in GM/MS media
  Normalised root: 70.03 and 65.16 and 32.16 and 67.4 and 20.77 and 47.64
  Root Length: 2.343 cm and 2.18 cm and 1.076 cm and 2.255 cm and 0.695 cm and 1.594 cm
A. thaliana seedlings; 62.5 μM in GM/MS media
  Normalised root: 64.32 and 82.41 and 69.91 and 82.88 and 64.47 and 34.82 and 79.21 and 80.49 and 78.28 and 63.37 and 57.96 and 45.82 and 15.99 and 51.14 and 20.03 and 32.64
  Root Length: 2.152 cm and 2.757 cm and 2.339 cm and 2.773 cm and 2.157 cm and 1.165 cm and 2.65 cm and 2.693 cm and 2.619 cm and 2.12 cm and 1.939 cm and 1.533 cm and 0.535 cm and 1.711 cm and 0.67 cm and 1.092 cm
A. thaliana seedlings; 125 μM in GM/MS media
  Normalised root: 33.06 and 69.91 and 19.58 and 22.27 and 3.796 and 61.99 and 8.578 and 23.43 and 41.58 and 46.33 and 18.05 and 12.76 and 7.532 and 1.225 and 12.64 and 3.945 and 21.19 and 14.91 and 8.907 and 2.032
  Root Length: 1.106 cm and 2.339 cm and 0.655 cm and 0.745 cm and 0.127 cm and 2.074 cm and 0.287 cm and 0.784 cm and 1.391 cm and 1.55 cm and 0.604 cm and 0.427 cm and 0.252 cm and 0.041 cm and 0.423 cm and 0.132 cm and 0.709 cm and 0.499 cm and 0.298 cm and 0.068 cm
A. thaliana seedlings; 250 μM in GM/MS media
  Normalised root: 18.35 and 35.03 and 19.34 and 7.741 and 3.318 and 12.7 and 3.049 and 7.532 and 27.32 and 17.58 and 13.9 and 3.916 and 9.923 and 8.07 and 5.619 and 3.497 and 4.513 and 2.66 and 3.378 and 3.676
  Root Length: 0.614 cm and 1.172 cm and 0.647 cm and 0.259 cm and 0.111 cm and 0.425 cm and 0.102 cm and 0.252 cm and 0.914 cm and 0.588 cm and 0.465 cm and 0.131 cm and 0.332 cm and 0.27 cm and 0.188 cm and 0.117 cm and 0.151 cm and 0.089 cm and 0.113 cm and 0.123 cm
A. thaliana seedlings; 500 μM in GM/MS media
  Normalised root: 2.75 and 4.065 and 1.674 (2×) and 1.644 and 1.315 and 2.331 (2×) and 0.7472 and 2.272 and 2.062 and 1.076 and 1.435 and 2.63 and 2.092 and 1.584 and 5.021 and 1.375
  Root Length: 0.092 cm and 0.136 cm and 0.056 cm (2×) and 0.055 cm and 0.044 cm and 0.078 cm (2×) and 0.025 cm and 0.076 cm and 0.069 cm and 0.036 cm and 0.048 cm and 0.088 cm and 0.07 cm and 0.053 cm and 0.168 cm and 0.046 cm
A. thaliana seedlings; concentrations 125 μM and higher
  seedling development: did not develop past the point of hypocotyl formation
A. thaliana seedlings; highest concentrations tested
  development and growth of A. thaliana (leaves): lack of any chlorophyll containing leaves
MSSA 9144; MSSA 9144, replicate 1, read-out: MIC #1
  MIC: > 64 µg/mL
MSSA 9144; MSSA 9144, replicate 2, read-out: MIC #2
  MIC: > 64 µg/mL
MSSA 9144; MSSA 9144, replicate 3, read-out: MIC #3
  MIC: > 64 µg/mL
[1]; Escherichia coli NCTC12923, replicate 1, read-out: MIC #1
  MIC: > 64 µg/mL
[1]; Escherichia coli NCTC12923, replicate 2, read-out: MIC #2
  MIC: > 64 µg/mL
[1]; Escherichia coli NCTC12923, replicate 3, read-out: MIC #3
  MIC: > 64 µg/mL
[2]; Enterococcus faecalis 775, replicate 1, read-out: MIC #1
  MIC: > 64 µg/mL
[2]; Enterococcus faecalis 775, replicate 2, read-out: MIC #2
  MIC: > 64 µg/mL
[2]; Enterococcus faecalis 775, replicate 3, read-out: MIC #3
  MIC: > 64 µg/mL
[3]; Enterococcus faecium 12204, replicate 1, read-out: MIC #1
  MIC: > 64 µg/mL
[3]; Enterococcus faecium 12204, replicate 2, read-out: MIC #2
  MIC: > 64 µg/mL
[3]; Enterococcus faecium 12204, replicate 3, read-out: MIC #3
  MIC: > 64 µg/mL
[4]; Pseudomonas aeruginosa 13437, replicate 1, read-out: MIC #1
  MIC: > 64 µg/mL
[4]; Pseudomonas aeruginosa 13437, replicate 2, read-out: MIC #2
  MIC: > 64 µg/mL
[4]; Pseudomonas aeruginosa 13437, replicate 3, read-out: MIC #3
  MIC: > 64 µg/mL
[5]; Acinetobacter baumannii 17978, replicate 1, read-out: MIC #1
  MIC: > 64 µg/mL
[5]; Acinetobacter baumannii 17978, replicate 2, read-out: MIC #2
  MIC: > 64 µg/mL
[5]; Acinetobacter baumannii 17978, replicate 3, read-out: MIC #3
  MIC: > 64 µg/mL
EMRSA-15; EMRSA-15, replicate 1, read-out: MIC #1
  MIC: > 64 µg/mL
EMRSA-15; EMRSA-15, replicate 2, read-out: MIC #2
  MIC: > 64 µg/mL
EMRSA-15; EMRSA-15, replicate 3, read-out: MIC #3
  MIC: > 64 µg/mL
EMRSA-16; EMRSA-16, replicate 1, read-out: MIC #1
  MIC: > 64 µg/mL
EMRSA-16; EMRSA-16, replicate 2, read-out: MIC #2
  MIC: > 64 µg/mL
EMRSA-16; EMRSA-16, replicate 3, read-out: MIC #3
  MIC: > 64 µg/mL
Klebsiella pneumoniae M6; Klebsiella pneumoniae M6, replicate 1, read-out: MIC #1
  MIC: > 64 µg/mL
Klebsiella pneumoniae M6; Klebsiella pneumoniae M6, replicate 2, read-out: MIC #2
  MIC: > 64 µg/mL
Klebsiella pneumoniae M6; Klebsiella pneumoniae M6, replicate 3, read-out: MIC #3
  MIC: > 64 µg/mL
[6]; Pseudomonas aeruginosa PA01, replicate 1, read-out: MIC #1
  MIC: > 64 µg/mL
[6]; Pseudomonas aeruginosa PA01, replicate 2, read-out: MIC #2
  MIC: > 64 µg/mL
[6]; Pseudomonas aeruginosa PA01, replicate 3, read-out: MIC #3
  MIC: > 64 µg/mL
[7]; replicate 1, read-out: MIC #1
  MIC: > 64 µg/mL
[7]; replicate 2, read-out: MIC #2
  MIC: > 64 µg/mL
[7]; replicate 3, read-out: MIC #3
  MIC: > 64 µg/mL
[8]; Enterococcus faecalis 12201, replicate 1, read-out: MIC #1
  MIC: > 64 µg/mL
[8]; Enterococcus faecalis 12201, replicate 2, read-out: MIC #2
  MIC: > 64 µg/mL
[8]; Enterococcus faecalis 12201, replicate 3, read-out: MIC #3
  MIC: > 64 µg/mL
A. thaliana DHDPS
  IC50: 70.5 µM

From patent US20200068890A1 (Person to Whom the Inventor is Obligated to Assign, priority 2017, published 2020)
